This assay deals with T1, recombinant human GR (Homo sapiens, UniProt P04150).
T1 construct: purchased Panvera/Invitrogen P2812 (kit P2893)
T1 sequence (P04150 1-777): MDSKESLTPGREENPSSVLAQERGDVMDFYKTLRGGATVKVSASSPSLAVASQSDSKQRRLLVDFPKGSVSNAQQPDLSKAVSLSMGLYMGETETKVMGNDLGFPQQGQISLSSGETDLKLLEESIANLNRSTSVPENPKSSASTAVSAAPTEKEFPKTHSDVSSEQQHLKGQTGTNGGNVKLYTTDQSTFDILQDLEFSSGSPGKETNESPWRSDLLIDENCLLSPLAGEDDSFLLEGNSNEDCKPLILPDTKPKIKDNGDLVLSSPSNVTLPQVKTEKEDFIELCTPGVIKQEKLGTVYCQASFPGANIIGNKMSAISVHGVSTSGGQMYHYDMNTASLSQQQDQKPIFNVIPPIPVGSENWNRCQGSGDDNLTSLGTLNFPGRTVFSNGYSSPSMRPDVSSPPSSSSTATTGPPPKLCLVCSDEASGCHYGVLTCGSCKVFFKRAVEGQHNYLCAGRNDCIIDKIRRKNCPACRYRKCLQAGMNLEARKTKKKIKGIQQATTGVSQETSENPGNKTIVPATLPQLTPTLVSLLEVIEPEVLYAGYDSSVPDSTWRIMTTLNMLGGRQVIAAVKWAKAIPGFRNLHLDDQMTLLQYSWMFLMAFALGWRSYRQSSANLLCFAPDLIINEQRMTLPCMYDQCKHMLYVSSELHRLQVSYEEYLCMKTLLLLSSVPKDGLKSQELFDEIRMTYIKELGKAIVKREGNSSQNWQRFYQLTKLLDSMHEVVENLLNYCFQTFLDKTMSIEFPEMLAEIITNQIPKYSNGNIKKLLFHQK
The experiment in a line: Human Glucocorticoid Receptor (GR) Assay (fluorescence polarization, Panvera/Invitrogen kit). Particulars: GS Red tracer, 2 hours at room temperature, 100% control 10 μM Dexamethasone, read-out: Inhibition of GR binding, IC50. On the procedure: Human Glucocorticoid Receptor (GR) Assay The assay is based on a commercial kit from Panvera/Invitrogen (Part number P2893). The assay technology is fluorescence polarization. The kit utilises recombinant human GR (Panvera, Part number P2812), a Fluoromone™ labelled tracer (GS Red, Panvera, Part number P2894) and a Stabilizing Peptide 10× (Panvera, Part number P2815). The GR and Stabilizing Peptide reagents are stored at −70° C. while the GS Red is stored at −20° C. Also included in the kit are 1M DTT (Panvera, Part number P2325, stored at −20° C.) and GR Screening buffer 10× (Panvera, Part number P2814, stored at −70° C. initially but once thawed stored at room temperature). Avoid repeated freeze/thaws for all reagents. The GR Screening buffer 10× comprises 100 mM potassium phosphate, 200 mM sodium molybdate, 1 mM EDTA and 20% DMSO. Test compounds (1 μL) and controls (1 μL) in 100% DMSO were added to black polystyrene 384-well plates (Greiner low volume black flat-bottom, part number 784076). 0% control was 100% DMSO and 100% control was 10 μM Dexamethasone. Background solution (8 μL; assay buffer 10×, Stabilizing Peptide, DTT and ice cold MQ water) was added to the background wells. GS Red solution (7 μL; assay buffer 10×, Stabilizing Peptide, DTT, GS Red and ice cold water) was added to all wells except background wells. GR solution (7 μL; assay buffer 10×, Stabilizing Peptide, DTT, GR and ice cold water) was added to all wells. The plate was sealed and incubated in a dark at room temperature for 2 hours. The plate was read in an Analyst plate reader (LJL Biosystems/Molecular Devices Corporation) or other similar plate reader capable of recording fluorescence polarization (excitation wavelength 530 nm, emission wavelength 590 nm and a dichroic mirror at 561 nm).
For orientation: In fluorescence polarisation assays a small probe gives low polarisation when free and higher when bound to something large.
The IC50 is the point on the concentration scale where inhibition reaches its midpoint. Take `C[C@]12C=CC(=O)C=C1[C@@H](F)C[C@H]1[C@@H]3C[C@H]4OC(c5cccc(C#N)c5)O[C@@]4(C(=O)SCC#N)[C@@]3(C)C[C@H](O)[C@@]12F` (stereo partly drawn) [Example 25, S-(Cyanomethyl)(4aS,4bR,5S,6aS,6bS,9aR,10aS,10bS,12S)-8-(3-cyanophenyl)-4b,12-difluoro-5-hydroxy-4a,6a-dimethyl-2-oxo-2,4a,4b,5,6,6a,9a,10,10a,10b,11,12-dodecahydro-6bH-naphtho[2′,1′:4,5]indeno[1,2-d][1,3]dioxole-6b-carbothioate]: the IC50 worked out at 0.7 nM.

`C[C@]12C=CC(=O)C=C1[C@@H](F)C[C@H]1[C@@H]3C[C@H]4OC(c5ccccc5)O[C@@]4(C(=O)SCF)[C@@]3(C)C[C@H](O)[C@@]12F` (stereo partly drawn) [Example 30, S-(Fluoromethyl)(4aS,4bR,5S,6aS,6bS,9aR,10aS,10bS,12S)-4b,12-difluoro-5-hydroxy-4a,6a-dimethyl-2-oxo-8-phenyl-2,4a,4b,5,6,6a,9a,10,10a,10b,11,12-dodecahydro-6bH-naphtho[2′,1′:4,5]indeno[1,2-d][1,3]dioxole-6b-carbothioate]: the half-maximal inhibitory concentration (IC50) was determined as 1.1 nM.

Turning to `C[C@]12C=CC(=O)C=C1[C@@H](F)C[C@H]1[C@@H]3C[C@H]4OC(c5cccc(F)c5)O[C@@]4(C(=O)SCC#N)[C@@]3(C)C[C@H](O)[C@@]12F` (stereo partly drawn) [Example 23, S-(Cyanomethyl)(4aS,4bR,5S,6aS,6bS,9aR,10aS,10bS,12S)-4b,12-difluoro-8-(3-fluorophenyl)-5-hydroxy-4a,6a-dimethyl-2-oxo-2,4a,4b,5,6,6a,9a,10,10a,10b,11,12-dodecahydro-6bH-naphtho[2′,1′:4,5]indeno[1,2-d][1,3]dioxole-6b-carbothioate], the half-inhibitory concentration (IC50) amounted to 0.99 nM.

For the compound `Cc1ccc(C2O[C@@H]3C[C@H]4[C@@H]5C[C@H](F)C6=CC(=O)C=C[C@]6(C)[C@@]5(F)[C@@H](O)C[C@]4(C)[C@]3(C(=O)SCC#N)O2)o1` (stereo partly drawn) [Example 10, S-(Cyanomethyl)(4aS,4bR,5S,6aS,6bS,9aR,10aS,10bS,12S)-4b,12-difluoro-5-hydroxy-4a,6a-dimethyl-8-(5-methyl-2-furyl)-2-oxo-2,4a,4b,5,6,6a,9a,10,10a,10b,11,12-dodecahydro-6bH-naphtho[2′,1′:4,5]indeno[1,2-d][1,3]dioxole-6b-carbothioate], the IC50 came out at 1.1 nM.

On to `C[C@]12C=CC(=O)C=C1[C@@H](F)C[C@H]1[C@@H]3C[C@H]4O[C@@H](c5ccccc5)O[C@@]4(C(=O)SCC#N)[C@@]3(C)C[C@H](O)[C@@]12F` [Example 31, S-(Cyanomethyl)(4aS,4bR,5S,6aS,6bS,9aR,10aS,10bS,12S)-4b,12-difluoro-5-hydroxy-4a,6a-dimethyl-2-oxo-8-phenyl-2,4a,4b,5,6,6a,9a,10,10a,10b,11,12-dodecahydro-6bH-naphtho[2′,1′:4,5]indeno[1,2-d][1,3]dioxole-6b-carbothioate], for which the IC50 came out at 0.98 nM.

`CSC(=O)[C@@]12OC(c3ccc(C(F)(F)F)cc3)O[C@@H]1C[C@H]1[C@@H]3CCC4=CC(=O)C=C[C@]4(C)[C@H]3[C@@H](O)C[C@@]12C` (stereo partly drawn) [Example 41, S-Methyl (4aR,4bS,5S,6aS,6bS,9aR,10aS,10bS)-5-hydroxy-4a,6a-dimethyl-2-oxo-8-[4-(trifluoromethyl)phenyl]-2,4a,4b,5,6,6a,9a,10,10a,10b,11,12-dodecahydro-6bH-naphtho[2′,1′:4,5]indeno[1,2-d][1,3]dioxole-6b-carbothioate]: the IC50 worked out at 2.2 nM.

As for `C[C@]12C=CC(=O)C=C1[C@@H](F)C[C@H]1[C@@H]3C[C@H]4OC(c5ccc(C(F)(F)F)o5)O[C@@]4(C(=O)SCF)[C@@]3(C)C[C@H](O)[C@@]12F` (stereo partly drawn) [Example 14, S-(Fluoromethyl)(4aS,4bR,5S,6aS,6bS,9aR,10aS,10bS,12S)-4b,12-difluoro-5-hydroxy-4a,6a-dimethyl-2-oxo-8-[5-(trifluoromethyl)-2-furyl]-2,4a,4b,5,6,6a,9a,10,10a,10b,11,12-dodecahydro-6bH-naphtho[2′,1′:4,5]indeno[1,2-d][1,3]dioxole-6b-carbothioate], the IC50 is 1.2 nM.

Turning to `C[C@]12C=CC(=O)C=C1[C@@H](F)C[C@H]1[C@@H]3C[C@H]4OC(c5ccc(C(F)(F)F)cc5)O[C@@]4(C(=O)SCC#N)[C@@]3(C)C[C@H](O)[C@@]12F` (stereo partly drawn) [Example 20, S-(Cyanomethyl)(4aS,4bR,5S,6aS,6bS,9aR,10aS,10bS,12S)-4b,12-difluoro-5-hydroxy-4a,6a-dimethyl-2-oxo-8-[4-(trifluoromethyl)phenyl]-2,4a,4b,5,6,6a,9a,10,10a,10b,11,12-dodecahydro-6bH-naphtho[2′,1′:4,5]indeno[1,2-d][1,3]dioxole-6b-carbothioate], the IC50 was 2.4 nM.

As to `C[C@]12C=CC(=O)C=C1[C@@H](F)C[C@H]1[C@@H]3C[C@H]4OC(c5ccc(F)cc5F)O[C@@]4(C(=O)SCF)[C@@]3(C)C[C@H](O)[C@@]12F` (stereo partly drawn) [Example 6, S-(Fluoromethyl)(4aS,4bR,5S,6aS,6bS,9aR,10aS,10bS,12S)-8-(2,4-difluorophenyl)-4b,12-difluoro-5-hydroxy-4a,6a-dimethyl-2-oxo-2,4a,4b,5,6,6a,9a,10,10a,10b,11,12-dodecahydro-6bH-naphtho[2′,1′:4,5]indeno[1,2-d][1,3]dioxole-6b-carbothioate], the IC50 came to 1.2 nM.

For the compound `C[C@]12C=CC(=O)C=C1[C@@H](F)C[C@H]1[C@@H]3C[C@H]4OC(c5cccs5)O[C@@]4(C(=O)SCC#N)[C@@]3(C)C[C@H](O)[C@@]12F` (stereo partly drawn) [Example 9, S-(Cyanomethyl)(4aS,4bR,5S,6aS,6bS,9aR,10aS,10bS,12S)-4b,12-difluoro-5-hydroxy-4a,6a-dimethyl-2-oxo-8-(2-thienyl)-2,4a,4b,5,6,6a,9a,10,10a,10b,11,12-dodecahydro-6bH-naphtho[2′,1′:4,5]indeno[1,2-d][1,3]dioxole-6b-carbothioate], the IC50 came to 0.57 nM.

Take `Cc1ccc(C2O[C@@H]3C[C@H]4[C@@H]5C[C@H](F)C6=CC(=O)C=C[C@]6(C)[C@@]5(F)[C@@H](O)C[C@]4(C)[C@]3(C(=O)SCC#N)O2)cc1` (stereo partly drawn) [Example 24, S-(Cyanomethyl)(4aS,4bR,5S,6aS,6bS,9aR,10aS,10bS,12S)-4b,12-difluoro-5-hydroxy-4a,6a-dimethyl-8-(4-methylphenyl)-2-oxo-2,4a,4b,5,6,6a,9a,10,10a,10b,11,12-dodecahydro-6bH-naphtho[2′,1′:4,5]indeno[1,2-d][1,3]dioxole-6b-carbothioate]: the half-maximal inhibitory concentration (IC50) amounted to 1.2 nM.

Turning to `C[C@]12C=CC(=O)C=C1[C@@H](F)C[C@H]1[C@@H]3C[C@H]4OC(c5cc6ccccc6o5)O[C@@]4(C(=O)SCF)[C@@]3(C)C[C@H](O)[C@@]12F` (stereo partly drawn) [Example 12, S-(Fluoromethyl)(4aS,4bR,5S,6aS,6bS,9aR,10aS,10bS,12S)-8-(1-benzofuran-2-yl)-4b,12-difluoro-5-hydroxy-4a,6a-dimethyl-2-oxo-2,4a,4b,5,6,6a,9a,10,10a,10b,11,12-dodecahydro-6bH-naphtho[2′,1′:4,5]indeno[1,2-d][1,3]dioxole-6b-carbothioate], the IC50 came to 0.86 nM.

On to `COc1ccc(C2O[C@@H]3C[C@H]4[C@@H]5CCC6=CC(=O)C=C[C@]6(C)[C@H]5[C@@H](O)C[C@]4(C)[C@]3(C(=O)SCC#N)O2)c(F)c1` (stereo partly drawn) [Example 37, S-(Cyanomethyl)(4aR,4bS,5S,6aS,6bS,9aR,10aS,10bS)-8-(2-fluoro-4-methoxyphenyl)-5-hydroxy-4a,6a-dimethyl-2-oxo-2,4a,4b,5,6,6a,9a,10,10a,10b,11,12-dodecahydro-6bH-naphtho[2′,1′:4,5]indeno[1,2-d][1,3]dioxole-6b-carbothioate], for which the 50% inhibitory concentration (IC50) is 1.4 nM.
